Where “and” joins values, the source holds several entries; their conditions need not be identical. Identical values can stand only once.
Assays:
Format in all cases: physicochemical
[1] = HPLC determination of impurities / mitomycin purity, process 2 (UV 254 nm)
Protocol: Column: YMC-Pack Phenyl 4.6 mm×300 mm, 10 μm […]
Purity determinations according to process 2 were performed at different times. […]

[2] = Reconstitution time of lyophilisates; settings: Example 13 urea lyophilisate
Protocol: Moreover, the lyophilisates could be completely reconstituted with isotonic saline solution in very much less than 30 secs.
In addition, the reconstitution time was determined.
(§1) The reconstitution was effected with 20 and 40 ml respectively of isotonic saline solution to an end concentration of 1 mg/ml.

[3] = Mitomycin C content, process 3 (content process Ph Eur 8.0 Mitomycin Monograph); settings: for Mitomycin C content: process 3; for Mitomycin content: No. 6: DMSO/DMAA 5.7/94.3 wt.-%, 0.53 mg/g mitomycin C, 8.0 mg/g urea, room temperature, exclusion of light
Protocol: (§2) The solutions were stored at room temperature and with exclusion of light for a period of up to 71.5 hours.
Process 3 corresponds to the content process according to Ph Eur 8.0 Mitomycin Monograph January 2008: 1655. Process 4 corresponds to the impurities process according to Ph Eur 8.0 Mitomycin Monograph January 2008: 1655. […]

[4] = Impurities / purity, process 4 (impurities process Ph Eur 8.0 Mitomycin Monograph); settings: for Impurity albomitomycin C / Sum of all impurities: Example 13 urea lyophilisate, process 4; for Mitomycin purity: No. 7: DMSO 100 wt.-%, 1.82 mg/g mitomycin C, 27.3 mg/g urea, room temperature, exclusion of light
Protocol: The composition according to the invention comprises the impurities D1, D2 and albomitomycin C in a total quantity of in particular less than 2.0%, preferably less than 1.5%, particularly preferably less than 1.0%, more preferably less than 0.8% and quite particularly preferably less than 0.6%, wherein the quantity of these impurities is determined according to the impurities process according to Ph Eur 8.0 Mitomycin Monograph January 2008: 1655. In the examples, this determination process is also referred to as process 4.
as §2
Process 3 corresponds to the content process according to Ph Eur 8.0 Mitomycin Monograph January 2008: 1655. Process 4 corresponds to the impurities process according to Ph Eur 8.0 Mitomycin Monograph January 2008: 1655.
as §1

[5] = 20 mg mitomycin C, 40° C. and 75% r.h., t = 3 months
[6] = 20 mg mitomycin C, 40° C. and 75% r.h., t = 6 months
[7] = 40 mg mitomycin C, 40° C. and 75% r.h., t = 3 months
[8] = 40 mg mitomycin C, 40° C. and 75% r.h., t = 6 months

In the case of `CO[C@@]12[C@H](COC(N)=O)C3=C(C(=O)C(C)=C(N)C3=O)N1C[C@@H]1N[C@@H]12` [Mitomycin C, (1aS,8S,8aR,8bS)-6-amino-8-[[(aminocarbonyl)oxy]methyl]-1,1a,2,8,8a,8b-hexahydro-8a-methoxy-5-methyl-azirino[2′,3′:3,4]pyrrolo[1,2-a]indol-4,7-dione], the Mitomycin purity [1] is reported as 98.86% and 96.77% and 97.04%, the Mitomycin purity ([1]; Example 5 solution: 3.33 mg/g mitomycin C, 5 wt.-% urea, 89/11 wt.-% tert.-butanol/water, 5° C. with exclusion of light, t = 0) is reported as 99.23% and the Mitomycin purity ([1]; Example 5 solution: 3.33 mg/g mitomycin C, 5 wt.-% urea, 89/11 wt.-% tert.-butanol/water, 5° C. with exclusion of light, t = 6 h) is reported as 99.18%. It also gave a Mitomycin purity ([1]; Example 5 solution: 3.33 mg/g mitomycin C, 5 wt.-% urea, 89/11 wt.-% tert.-butanol/water, 5° C. with exclusion of light, t = 24 h) of 99.20%, a Mitomycin purity ([1]; Example 5 solution: 3.33 mg/g mitomycin C, 5 wt.-% urea, 89/11 wt.-% tert.-butanol/water, 5° C. with exclusion of light, t = 72 h) of 98.80% and a Mitomycin purity ([1]; Example 5 solution: 3.33 mg/g mitomycin C, 5 wt.-% urea, 89/11 wt.-% tert.-butanol/water, 5° C. with exclusion of light, t = 9 d) of 98.21%. The Mitomycin purity ([1]; Example 5 solution: 3.33 mg/g mitomycin C, 5 wt.-% urea, 89/11 wt.-% tert.-butanol/water, RT with exclusion of light, t = 0) was 99.33%, the Mitomycin purity ([1]; Example 5 solution: 3.33 mg/g mitomycin C, 5 wt.-% urea, 89/11 wt.-% tert.-butanol/water, RT with exclusion of light, t = 6 h) was 98.83% and the Mitomycin purity ([1]; Example 5 solution: 3.33 mg/g mitomycin C, 5 wt.-% urea, 89/11 wt.-% tert.-butanol/water, RT with exclusion of light, t = 24 h) was 97.80%. It also gave a Mitomycin purity ([1]; Example 5 solution: 3.33 mg/g mitomycin C, 5 wt.-% urea, 89/11 wt.-% tert.-butanol/water, RT with exclusion of light, t = 72 h) of 96.74%, a Mitomycin purity ([1]; Example 5 solution: 3.33 mg/g mitomycin C, 5 wt.-% urea, 89/11 wt.-% tert.-butanol/water, RT with exclusion of light, t = 9 d) of 96.35% and a Mitomycin purity ([1]; Example 5 solution: 3.33 mg/g mitomycin C, 5 wt.-% urea, 89/11 wt.-% tert.-butanol/water, RT without protection against light, t = 0) of 99.32%. The Mitomycin purity ([1]; Example 5 solution: 3.33 mg/g mitomycin C, 5 wt.-% urea, 89/11 wt.-% tert.-butanol/water, RT without protection against light, t = 6 h) was 98.83%, the Mitomycin purity ([1]; Example 5 solution: 3.33 mg/g mitomycin C, 5 wt.-% urea, 89/11 wt.-% tert.-butanol/water, RT without protection against light, t = 24 h) was 97.60% and the Mitomycin purity ([1]; Example 5 solution: 3.33 mg/g mitomycin C, 5 wt.-% urea, 89/11 wt.-% tert.-butanol/water, RT without protection against light, t = 72 h) was 96.14%. The Mitomycin purity ([1]; Example 5 solution: 3.33 mg/g mitomycin C, 5 wt.-% urea, 89/11 wt.-% tert.-butanol/water, RT without protection against light, t = 9 d) was 95.78%, the “Mitomycin C purity” value ([1]; Example 7 solution: 1.33 mg/g mitomycin C, 20 mg/g urea, 89/11 wt.-% tert.-butanol/water, 5° C. with exclusion of light, t = 27 h) was 99.7% and the “Mitomycin C purity” value ([1]; Example 7 solution: 1.33 mg/g mitomycin C, 20 mg/g urea, 89/11 wt.-% tert.-butanol/water, RT with exclusion of light, t = 5 h) was 99.7%. The “Mitomycin C purity” value ([1]; Example 7 solution: 1.33 mg/g mitomycin C, 20 mg/g urea, 89/11 wt.-% tert.-butanol/water, RT with exclusion of light, t = 22 h) was 99.2%, the “Mitomycin C purity” value ([1]; Example 7 solution: 1.33 mg/g mitomycin C, 20 mg/g urea, 89/11 wt.-% tert.-butanol/water, RT with exclusion of light, t = 27 h) was 98.9% and the “Mitomycin C purity” value ([1]; Example 8 solution: 1.67 mg/g mitomycin C, 25 mg/g urea, 89/11 wt.-% tert.-butanol/water, RT with exclusion of light, t = 5 h) was 99.6%. The “Mitomycin C purity” value ([1]; Example 8 solution: 1.67 mg/g mitomycin C, 25 mg/g urea, 89/11 wt.-% tert.-butanol/water, RT with exclusion of light, t = 22 h) was 99.1%, the “Mitomycin C purity” value ([1]; Example 8 solution: 1.67 mg/g mitomycin C, 25 mg/g urea, 89/11 wt.-% tert.-butanol/water, RT with exclusion of light, t = 27 h) was 98.6% and the Reconstitution time ([2]; 20 mg mitomycin C, 20 ml isotonic saline to 1 mg/ml, 40° C. and 75% r.h., t = 3 months) was 12 s. For the same compound, the Reconstitution time ([2]; 20 mg mitomycin C, 20 ml isotonic saline to 1 mg/ml, 40° C. and 75% r.h., t = 6 months) was 17 s, the Reconstitution time ([2]; 20 mg mitomycin C, 20 ml isotonic saline to 1 mg/ml, t = 0) was 7 s and the Reconstitution time ([2]; 40 mg mitomycin C, 40 ml isotonic saline to 1 mg/ml, 40° C. and 75% r.h., t = 3 months) was 20 s. For the same compound, the Reconstitution time ([2]; 40 mg mitomycin C, 40 ml isotonic saline to 1 mg/ml, 40° C. and 75% r.h., t = 6 months) was 18 s, the Reconstitution time ([2]; 40 mg mitomycin C, 40 ml isotonic saline to 1 mg/ml, t = 0) was 6 s and the “Mitomycin C content” value ([3]; Example 13 urea lyophilisate, 20 mg mitomycin C, 40° C. and 75% r.h., t = 3 months) was 98.2%. For the same compound, the “Mitomycin C content” value ([3]; Example 13 urea lyophilisate, 20 mg mitomycin C, 40° C. and 75% r.h., t = 6 months) was 98.3%, the “Mitomycin C content” value ([3]; Example 13 urea lyophilisate, 20 mg mitomycin C, t = 0) was 97.8% and the “Mitomycin C content” value ([3]; Example 13 urea lyophilisate, 40 mg mitomycin C, 40° C. and 75% r.h., t = 3 months) was 96.6%. For the same compound, the “Mitomycin C content” value ([3]; Example 13 urea lyophilisate, 40 mg mitomycin C, 40° C. and 75% r.h., t = 6 months) was 96.7%, the “Mitomycin C content” value ([3]; Example 13 urea lyophilisate, 40 mg mitomycin C, t = 0) was 97.2% and the “Mitomycin C content” value ([3]; Example 14 urea lyophilisate (20 mg) reconstituted with water for injection, end concentration 1 mg/ml) was 100.6%. The “Mitomycin C content” value ([3]; Example 14 urea lyophilisate (20 mg) reconstituted with water for injection, end concentration 2 mg/ml) was 100.6%, the Mitomycin content ([3]; t = 0) was 100% and the Mitomycin content ([3]; t = 6.5 h) was 99.93%. The Mitomycin content ([3]; t = 14.5 h) was 99.62%, the Mitomycin content ([3]; t = 21 h) was 98.84% and the Mitomycin content ([3]; t = 42 h) was 99.11%. The Mitomycin content ([3]; t = 71.5 h) was 98.58%, the “Impurity albomitomycin C” value [4, 5] was 0.20% and the “Sum of all impurities” value [4, 5] was 0.55%. The “Impurity albomitomycin C” value [4, 6] was 0.26%, the “Sum of all impurities” value [4, 6] was 0.61% and the “Impurity albomitomycin C” value ([4]; 20 mg mitomycin C, t = 0) was 0.29%. The “Sum of all impurities” value ([4]; 20 mg mitomycin C, t = 0) was 0.29%, the “Impurity albomitomycin C” value [4, 7] was 0.22% and the “Sum of all impurities” value [4, 7] was 0.55. The “Impurity albomitomycin C” value [4, 8] was 0.21%, the “Sum of all impurities” value [4, 8] was 0.58 and the “Impurity albomitomycin C” value ([4]; 40 mg mitomycin C, t = 0) was 0.32%. The “Sum of all impurities” value ([4]; 40 mg mitomycin C, t = 0) was 0.32, the Mitomycin purity ([4]; t = 0) was 100% and the Mitomycin purity ([4]; t = 4 h) was 99.31%. For the same compound, the Mitomycin purity ([4]; t = 6.5 h) was 99.32%, the Mitomycin purity ([4]; t = 13 h) was 99.19% and the Mitomycin purity ([4]; t = 20 h) was 99.36%. For the same compound, the Mitomycin purity ([4]; t = 26.5 h) was 99.32%.
